Common to all, as to type: functional
The subject of assay [1] is HepG2. In words: Induction of apoptosis in human HepG2 cells at cytotoxic IC50 by propidium iodide staining based flow cytometry (reference value: 1.2%). (In general: A flow cytometer gives signals particle by particle.)
In assay [2] the test system is HepG2. In words: Induction of cell cycle arrest in human HepG2 cells assessed as accumulation at G1 phase at cytotoxic IC50 by propidium iodide staining based flow cytometry (reference value: 66.4%).
Assay [3] relates to HepG2. Description: Induction of cell cycle arrest in human HepG2 cells assessed as accumulation at G2 phase at cytotoxic IC50 by propidium iodide staining based flow cytometry (reference value: 7.2%).
The test system of assay [4] is HepG2. Description: Induction of cell cycle arrest in human HepG2 cells assessed as accumulation at S phase at cytotoxic IC50 by propidium iodide staining based flow cytometry (reference value: 25.2%).
Assay [5] deals with HepG2. Description: Induction of apoptosis in human HepG2 cells assessed as viable cells level at 1.41 uM by Annexin V and propidium iodide staining based flow cytometry.
For assay [6], the system named is HepG2. Description: Induction of apoptosis in human HepG2 cells assessed as early apoptotic cells level at 1.41 uM by Annexin V and propidium iodide staining based flow cytometry.
Assay [7] has as its system HepG2. Description: Induction of apoptosis in human HepG2 cells assessed as late apoptotic cells level at 1.41 uM by Annexin V and propidium iodide staining based flow cytometry.
Assay [8] relates to HepG2. Description: Induction of apoptosis in human HepG2 cells assessed as necrotic cells level at 1.41 uM by Annexin V and propidium iodide staining based flow cytometry.

`CCOc1ccc(-n2nc(C(=O)NCc3cc(F)cc(F)c3)nc2-c2cc(OC)c(OC)c(OC)c2)cc1`: the Activity in the assay on HepG2 [1] was determined as 16.7%; in the assay on HepG2 [2], 35.4%; in the assay with HepG2 [3], 21.6%; in the assay on HepG2 [4] it was 26.3%; in the assay with HepG2 [5], 62%; with HepG2 [6], 21%. Moreover, the Activity in the assay with HepG2 [7] amounted to 14%; with HepG2 [8], 3%.
